# Experimental data: paper PMC5652693, “Coupling to a cancer-selective heparan-sulfate-targeted branched peptide can by-pass breast cancer cell resistance to methotrexate” (Oncotarget, 2017)
# “Also recorded” adds a separate entry of the source.
# B1: Midkine: heparin binding protein (protein, UniProt P21741 21-143, looked up)
# Midkine: VAKKKDKVKKGGPGSECAEWAWGPCTPSSKDCGVGFREGTCGAQTQRIRCRVPCNWKKEFGADCKYKFENWGACDGGTGTKVRQGTLKKARYNAQCQETIRVTKPCTPKTKAKAKAKKGKGKD
# Tests used:
# [1] = system: HT-1376 human bladder carcinoma cells; experiment: MTX cytotoxicity screening, HT-1376; type: cell-based
# Experimental: (§1) MCF-7 human breast adenocarcinoma, MDA-MB 231 human breast adenocarcinoma, T-24 human bladder carcinoma, PANC-1 human pancreatic carcinoma, HT29 human colon adenocarcinoma, A375 human melanoma, HT-1376 human bladder carcinoma and OVCAR-3 human ovarian carcinoma cells were grown in their recommended media supplemented with 10% fetal calf serum, 200 μg/ml glutamine, 100 μg/ml streptomycin, 60 μg/ml penicillin, and maintained at 37°C, 5% CO2. MDA-MB 231 was maintained at 37°C without CO2. Cell lines were purchased from ATCC.
# (§2) MCF-7 and MDA-MB 231 cells were plated at a density of 5 × 10^3 per well in 96-well microplates. […] Cell growth was analyzed after 6 days of incubation at 37°C. Growth inhibition was assessed by 3-(4,5-dimethylthiazol-2-yl)-2,5-diphenyltetrazolium bromide (MTT). Cytotoxicity of drug-conjugated NT4 was compared with that of the corresponding free drugs. The experiment was performed twice in triplicate. EC50 values were calculated by non-linear regression analysis using Graph Pad Prism 5.03 software. Values from untreated controls gave 100% cell viability.
# [2] = system: T-24 human bladder carcinoma cells; experiment: MTX cytotoxicity screening, T-24; type: cell-based
# Experimental: as §1, §2
# [3] = system: A375 human melanoma cells; experiment: MTX cytotoxicity screening, A375; type: cell-based; conditions: A-375
# Experimental: as §1, §2
# [4] = system: MCF-7 cells; experiment: Cytotoxicity with and without heparin, MCF-7; type: cell-based, human; conditions: MCF-7, 610 pM to 10 μM compound in the presence of 1 μM heparin, 6 days at 37°C, MTT
# Experimental: as §2, with “software.” for “software. Values from untreated controls gave 100% cell viability.”
# [5] = system: MDA-MB 231 cells; experiment: Cytotoxicity with and without heparin, MDA-MB 231; type: cell-based, human; conditions: MDA-MB 231, 610 pM to 10 μM compound in the presence of 1 μM heparin, 6 days at 37°C, MTT
# Experimental: as §2, with “software.” for “software. Values from untreated controls gave 100% cell viability.”
# [6] = system: MCF-7 human breast adenocarcinoma cells; experiment: Cytotoxicity (MTT growth inhibition) in MTX-sensitive MCF-7 cells; type: cell-based; conditions: MCF7, MCF-7, 5 × 10^3 cells per well, 6 days at 37°C, twice in triplicate (Figure 6: mean of six experiments ± SD)
# Experimental: as §1
# as §2, with “software.” for “software. Values from untreated controls gave 100% cell viability.”
# [7] = system: OVCAR-3 human ovarian carcinoma cells; experiment: MTX cytotoxicity screening, OVCAR-3; type: cell-based
# Experimental: as §1, §2
# [8] = system: MDA-MB 231 human breast adenocarcinoma cells; experiment: Cytotoxicity (MTT growth inhibition) in MTX-resistant MDA-MB 231 cells; type: cell-based; conditions: MDA-MB 231, 5 × 10^3 cells per well, 6 days at 37°C, twice in triplicate (Figure 6: mean of six experiments ± SD)
# Experimental: as §1
# as §2, with “software.” for “software. Values from untreated controls gave 100% cell viability.”
# [9] = system: HT29 human colon adenocarcinoma cells; experiment: MTX cytotoxicity screening, HT29; type: cell-based; conditions: HT-29
# Experimental: as §1, §2
# [10] = system: PANC-1 human pancreatic carcinoma cells; experiment: MTX cytotoxicity screening, PANC-1; type: cell-based
# Experimental: as §1, §2
# [11] = system: MCF-7 and MDA-MB 231 cells; experiment: Transporter-mediated efflux of Rho 123 by flow cytometry; type: cell-based, human; conditions: 1 μM Rho 123 for 10 minutes, washed, fluorescence monitored 0-120 minutes by flow cytometry
# Experimental: (§3) All experiments were performed using 2 × 10^5 MCF-7 or MDA-MB 231 cells in 96 well U-bottom plates. All dilutions were performed in PBS, containing 5 mM EDTA and 0.5% BSA. 10,000 events were evaluated in a BD FACS Canto II or a BD FACS Calibur (Becton Dickinson, NJ USA). The results were analyzed by FCS Express 6 Flow cytometry software.
# To analyze active cell drug export mechanisms, MCF-7 and MDA-MB 231 cells were exposed to 1 μM Rho 123 for 10 minutes, then washed twice with PBS-5 mM EDTA-[…] to remove excess of Rho 123, and fluorescence was monitored immediately (T0) and after 10, 20, 30, 45, 60, 90 and 120 minutes. Each step was followed by three washes in PBS-5 mM EDTA-0.5% BSA. P values were calculated using two-tailed Student's t-test (99% confidence interval) using Graph Pad Prism 5.03 software.
# [12] = system: orthotopic model of breast cancer; parameters: method as in PMID 26626158; conditions: orthotopic model of breast cancer in mice, identical experimental conditions for conjugate and free drug; cited from earlier work
# Source text: In previous studies we investigated the cancer selectivity of tetra-branched peptides containing the sequence of human neurotensin, which we named NT4. We developed theranostic molecules for tumor imaging or therapy by coupling NT4 to different functional units or liposomes.
# [13] = system: NT4 binding to MDA-MB 231 cells; experiment: Inhibition of NT4 binding by heparin or heparin binding proteins (flow cytometry), MDA-MB 231; type: cell-based, human; conditions: 250 nM biotinylated NT4; heparin 20, 10 and 1 μg/ml or 1 μM Midkine or Apolipoprotein E4; 30 min, room temperature; Streptavidin-FITC
# Experimental: as §3
# (§4) Inhibition of NT4 binding by heparin was carried out incubating cells with 250 nM biotinylated NT4 and various concentrations (20 μg/ml, 10 μg/ml and 1 μg/ml) of heparin for 30 min at room temperature. Inhibition of NT4 binding by heparin binding proteins was carried out incubating cells with 250 nM biotinylated NT4 and 1 μM Midkine or Apolipoprotein E4 for 30 min at room temperature. Cells were finally incubated with 1 μg/ml Streptavidin-FITC.
# [14] = system: NT4 binding to MCF-7 cells; experiment: Inhibition of NT4 binding by heparin or heparin binding proteins (flow cytometry), MCF-7; type: cell-based, human; conditions: 250 nM biotinylated NT4; heparin 20, 10 and 1 μg/ml or 1 μM Midkine or Apolipoprotein E4; 30 min, room temperature; Streptavidin-FITC
# Experimental: as §3, §4
molecule,measurement,setting,value
"CN(Cc1cnc2nc(N)nc(N)c2n1)c1ccc(C(=O)N[C@@H](CCC(=O)O)C(=O)O)cc1 [MTX, methotrexate]",EC50,[1],171 nM
same,EC50,[2],80.7 nM
same,EC50,[3],33.7 nM
same,effect of heparin on cytotoxicity,[4],did not affect
same,effect of heparin on cytotoxicity,[5],did not affect
same,EC50,[6],25.8 nM
same,EC50,[7],89.5 nM
same,EC50,[8],506 nM
same,EC50,[9],60.9 nM
same,EC50,[10],23.4 nM
"COC(=O)c1ccccc1-c1c2ccc(=N)cc-2oc2cc(N)ccc12 [Rho 123, Rhodamine 123]",drug efflux (Rho 123 signal decrease) compared between cell lines,[11],comparable in the two cell lines
CC(=O)O[C@H]1C(=O)[C@@]2(C)[C@H]([C@H](OC(=O)c3ccccc3)[C@]3(O)C[C@H](OC(=O)[C@H](O)[C@@H](NC(=O)c4ccccc4)c4ccccc4)C(C)=C1C3(C)C)[C@]1(OC(C)=O)CO[C@@H]1C[C@@H]2O [paclitaxel],tumor regression,[12],not achieved
Apolipoprotein E4: heparin binding protein,inhibition of NT4 binding to MDA-MB 231 cells,[13],inhibited
same,inhibition of NT4 binding to MCF-7 cells,[14],inhibited
heparin,inhibition of NT4 binding to MDA-MB 231 cells,[13],inhibited; also recorded: abolished
same,inhibition of NT4 binding to MCF-7 cells,[14],inhibited; also recorded: abolished
B1,inhibition of NT4 binding to MDA-MB 231 cells,[13],inhibited
same,inhibition of NT4 binding to MCF-7 cells,[14],inhibited
